# Values of other authors in publication PMC7821949 (Biomolecules, 2020).
# Test system: α-Bgt
substance,measurement,value
HAP: Combinatorial high-affinity peptide HAP. (WRYYESSLLPYPD),affinity for α-Bgt,2 to 4 nM
